Measured values published in US8853239B2, “Compounds, pharmaceutical compositions and uses thereof” (Boehringer Ingelheim International GmbH, priority 2011, dated 2014).

Target: T1, human GPR119 (Homo sapiens, UniProt Q8TDV5)
T1 construct: expression vector for human GPR119 cDNA (Acc. No. NP_848566); expressed in transfected cells
T1 sequence (Q8TDV5 1-335): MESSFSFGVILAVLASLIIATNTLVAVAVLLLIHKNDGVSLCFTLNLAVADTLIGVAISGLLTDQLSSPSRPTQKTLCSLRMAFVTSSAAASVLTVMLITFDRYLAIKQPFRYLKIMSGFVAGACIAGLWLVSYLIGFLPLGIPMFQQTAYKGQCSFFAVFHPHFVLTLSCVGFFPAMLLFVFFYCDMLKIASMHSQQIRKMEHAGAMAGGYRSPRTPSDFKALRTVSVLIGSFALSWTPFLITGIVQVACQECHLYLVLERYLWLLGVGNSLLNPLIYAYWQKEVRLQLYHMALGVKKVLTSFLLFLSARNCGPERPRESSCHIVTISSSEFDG
Assay: AlphaScreen cAMP assay in MIN6 cells stably transfected with human GPR119
Format: cell-based
Details: Min-6/hGPR119 cells, stimulation of intracellular cAMP, 45 minutes incubation at room temperature
Experimental: The compounds of formula I according to the invention modulate the activity of the G-protein-coupled receptor GPR119. The effect of the compounds on the activation of GPR119 and on the stimulation of intracellular cAMP concentration is determined using the AlphaScreen cAMP Assay Kit (Cat. No. #6760625R) made by PerkinElmer.
MIN6 cells [Miyazaki J et al. Endocrinology. 1990 July; 127(1):126-32] are stably transfected with an expression vector for human GPR119 cDNA (Acc. No. NP_848566). Min-6/hGPR119 cells are cultured in DMEM, 10% FBS, 50 μM β-mercaptoethanol, 0.3 mg/mL Geniticin, 2 mM GlutaMAX at 37° C. 5% CO2. For the assay, the cells are seeded in Optiplates (white, 384-well, 160W-barcoded, TC, sterile with lid, Cat. No. #6007688 (Perkin Elmer); 10000 cells/well; 50 μl). The plates covered with lids are then incubated for 24 hours at 37° C./5% CO2. After the medium is aspirated from the wells completely, 10 μl of the test compound are added, the compounds are diluted using stimulating buffer (140 mM NaCl, 3.6 mM KCl, 0.5 mM NaH2PO4, 0.5 mM MgSO4, 1.5 mM CaCl2, 10 mM Hepes, 5 mM NaHCO3; pH 7.4. 0.5 mM IBMX and 0.1% BSA, the final DMSO concentration is 1%). After 45 minutes incubation at room temperature (approx. 20° C.), the cAMP concentrations are determined using the AlphaScreen cAMP Assay Kit (Cat. No. #6760625R from PerkinElmer).

| SMILES | EC50 [nM] |
| --- | --- |
| CC(C)(F)CN1CCC(C2Cc3cc(C4CCN(S(C)(=O)=O)CC4)ncc3O2)CC1 (centres unmarked) [Example 5, 2-[1-(2-Fluoro-2-methyl-propyl)-piperidin-4-yl]-5-(1-methanesulfonyl-piperidin-4-yl)-2,3-dihydro-furo[2,3-c]pyridine] | 663 |
| CC(C)(F)CN1CCC([C@@]2(C)Cc3cc(-c4ccc(S(C)(=O)=O)cc4)ncc3O2)CC1 [Example 10, (R)-2-[1-(2-Fluoro-2-methyl-propyl)-piperidin-4-yl]-5-(4-methanesulfonyl-phenyl)-2-methyl-2,3-dihydro-furo[2,3-c]pyridine] | 66 |
| CC(C)(F)CN1CCC(C2Cc3cc(-c4ccc(CS(C)(=O)=O)cc4F)ncc3O2)CC1 (centres unmarked) [Example 9, 5-(2-Fluoro-4-methanesulfonylmethyl-phenyl)-2-[1-(2-fluoro-2-methyl-propyl)-piperidin-4-yl]-2,3-dihydro-furo[2,3-c]pyridine] | 100 |
| CS(=O)(=O)Cc1ccc(-c2cc3c(cn2)OC(C2CCN(CC4(C(F)(F)F)CC4)CC2)C3)c(F)c1 (centres unmarked) [Example 7, 5-(2-Fluoro-4-methanesulfonylmethyl-phenyl)-2-{1-[(1-trifluoromethyl-cyclopropyl)methyl]-piperidin-4-yl}-2,3-dihydrofuro[2,3-c]pyridine] | 22 |
| C[C@]1(C2CCN(CC3(C(F)(F)F)CC3)CC2)Cc2cc(-c3ccc(S(C)(=O)=O)cc3)ncc2O1 [Example 18] | 27 |
| CC(C)(F)CN1CCC([C@@]2(C)Cc3cc(C4=CCN(S(C)(=O)=O)CC4)ncc3O2)CC1 [Example 16, (R)-2-[1-(2-Fluoro-2-methyl-propyl)-piperidin-4-yl]-5-(1-methanesulfonyl-1,2,3,6-tetrahydro-pyridin-4-yl)-2-methyl-2,3-dihydro-furo[2,3-c]pyridine] | 25 |
| CC(C)(F)CN1CCC(C2Cc3cc(-c4ccc(S(C)(=O)=O)cc4)ccc3O2)CC1 (centres unmarked) [Example 1, 1-(2-Fluoro-2-methyl-propyl)-4-[5-(4-methanesulfonyl-phenyl)-2,3-dihydro-benzofuran-2-yl]-piperidine] | 417 |
| CC(C)(F)CN1CCC([C@H]2Cc3cc(-c4ccc(S(C)(=O)=O)cc4)ncc3O2)CC1 [Example 19, (R)-2-[1-(2-Fluoro-2-methyl-propyl)-piperidin-4-yl]-5-(4-methanesulfonyl-phenyl)-2,3-dihydro-furo[2,3-c]pyridine] | 84 |
| C[C@]1(C2CCN(CC3(C(F)(F)F)CC3)CC2)Cc2cc(C3=CCN(S(C)(=O)=O)CC3)ncc2O1 [Example 13, (R)-5-(1-Methanesulfonyl-1,2,3,6-tetrahydro-pyridin-4-yl)-2-methyl-2-{1-[(1-trifluoromethyl-cyclopropyl)methyl]-piperidin-4-yl}-2,3-dihydro-furo[2,3-c]pyridine] | 5 |
| CC(C)(F)CN1CCC(C2Cc3cc(-c4ccc(CS(C)(=O)=O)cc4)ncc3O2)CC1 (centres unmarked) [Example 4, 2-[1-(2-Fluoro-2-methyl-propyl)-piperidin-4-yl]-5-(4-methanesulfonylmethyl-phenyl)-2,3-dihydro-furo[2,3-c]pyridine] | 215 |
| CS(=O)(=O)Cc1ccc(-c2cc3c(cn2)OC(C2CCN(CC4(C(F)(F)F)CC4)CC2)C3)cc1 (centres unmarked) [Example 8, 5-(4-Methanesulfonylmethyl-phenyl)-2-{1-[(1-trifluoromethyl-cyclopropyl)methyl]-piperidin-4-yl}-2,3-dihydrofuro[2,3-c]pyridine] | 35 |

The next lines start with the values.

| EC50 [nM] | SMILES |
| --- | --- |
| 78 | CS(=O)(=O)N1CC=C(c2cc3c(cn2)O[C@H](C2CCN(CC4(C(F)(F)F)CC4)CC2)C3)CC1 [Example 15, (S)-5-(1-Methanesulfonyl-1,2,3,6-tetrahydro-pyridin-4-yl)-2-{1-[(1-trifluoromethyl-cyclopropyl)methyl]-piperidin-4-yl}-2,3-dihydro-furo[2,3-c]pyridine] |
| 46 | CC(C)(F)CN1CCC([C@H]2Cc3cc(C4=CCN(S(C)(=O)=O)CC4)ncc3O2)CC1 [Example 12, (R)-2-[1-(2-Fluoro-2-methyl-propyl)-piperidin-4-yl]-5-(1-methanesulfonyl-1,2,3,6-tetrahydro-pyridin-4-yl)-2,3-dihydro-furo[2,3-c]pyridine] |
| 2 | CS(=O)(=O)N1CC=C(c2cc3c(cn2)O[C@@H](C2CCN(CC4(C(F)(F)F)CC4)CC2)C3)CC1 [Example 14, (R)-5-(1-Methanesulfonyl-1,2,3,6-tetrahydro-pyridin-4-yl)-2-{1-[(1-trifluoromethyl-cyclopropyl)methyl]-piperidin-4-yl}-2,3-dihydro-furo[2,3-c]pyridine] |
| 21 | CS(=O)(=O)N1CC=C(c2cc3c(cn2)OC(C2CCN(CC4(C(F)(F)F)CC4)CC2)C3)CC1 (racemic) [Example 6, 5-(1-Methanesulfonyl-1,2,3,6-tetrahydro-pyridin-4-yl)-2-{1-[(1-trifluoromethyl-cyclopropyl)methyl]-piperidin-4-yl}-2,3-dihydro-furo[2,3-c]pyridine] |
| 848 | CC(C)(F)CN1CCC([C@@H]2Cc3cc(C4=CCN(S(C)(=O)=O)CC4)ncc3O2)CC1 [Example 11, (S)-2-[1-(2-Fluoro-2-methyl-propyl)-piperidin-4-yl]-5-(1-methanesulfonyl-1,2,3,6-tetrahydro-pyridin-4-yl)-2,3-dihydro-furo[2,3-c]pyridine] |
| 36 | CC(C)(F)CN1CCC(C2Cc3cc(C4=CCN(S(C)(=O)=O)CC4)ncc3O2)CC1 (centres unmarked) [Example 3, 2-[1-(2-Fluoro-2-methyl-propyl)-piperidin-4-yl]-5-(1-methanesulfonyl-1,2,3,6-tetrahydro-pyridin-4-yl)-2,3-dihydro-furo[2,3-c]pyridine] |
